# Experimental data published in US20220146526A1, “METHOD FOR EVALUATING SAMPLE, ANALYSIS METHOD, METHOD FOR DETECTING DEGRADED SAMPLE, MARKER FOR DETECTING DEGRADED BLOOD PLASMA SAMPLE, AND MARKER FOR DETECTING DEGRADED SERUM SAMPLE” (SHIMADZU CORPORATION, priority 2019, published 2022).
# Experiments:
# Format in all cases: physicochemical, human
# [1] = GC/MS of blood plasma sample: time from blood collection to centrifugation (Table A); conditions: for Rate of increase or decrease: detection intensity relative to 1 at 15 minutes; for Rate of increase or decrease / Increase or decrease: blood collection to centrifugation; for Increase or decrease: detection intensity
# Protocol: (§1) At room temperature, 5 mL of blood from a healthy subject was taken into a blood-collecting vessel containing EDTA, and the blood-collecting vessel was inverted for mixing, then cooled, and allowed to stand at 4° C. Here, in order to investigate how the detection intensity of molecules contained in the sample was affected in a case where the time to cooling was set to 5 minutes or more as compared to that in a case where the time to cooling was set to 1 minute or less, preparations were performed under both the former condition and the latter condition. After standing, the blood sample was subjected to centrifugation under a condition of 4° C., 3000 rpm, and 15 minutes. […] After centrifugation, the blood-collecting vessel was left to stand at room temperature for 30 minutes, and the blood plasma was isolated during this 30 minutes. The obtained blood plasma sample was frozen and stored. Here, in order to investigate how the detection intensity of molecules contained in the sample was affected in cases where freezing and thawing was performed 4 times, 6 times, and 10 times after freezing as compared to that in a case where freezing and thawing was performed 2 times after freezing, freezing and thawing was performed under the respective conditions of 2, 4, 6, and 10 times.
# (§2) Frozen blood plasma samples and serum samples were subjected to GC/MS or LC/MS. In GC/MS, the blood plasma samples and serum samples were subjected to methoxymation and trimethylsilylation and then introduced to GC-MS.
# (§3) GC/MS was conducted using GCMS·TQ8040 (Shimadzu Corporation) that was a GC·MS equipped with AOC·20i (Shimadzu Corporation) as an autosampler.
# (§4) Column: BPX5 (inner diameter of 0.25 mm, length of 30 m, and film thickness of 0.25 μm) (SGE)
# (§5) Column temperature: maintained at 60° C. for 2 minutes, then raised at 15° C./min, and maintained at 330° C. for 3 minutes.
# (§6) Inlet temperature: 250° C.
# (§7) Carrier gas control mode: constant linear velocity of 39.0 cm/sec
# (§8) Sample introduction method: split (split ratio of 30:1) Injection volume: 1 μL
# (§9) Ionization method: electron ionization
# (§10) Ionization current: 60 μA
# (§11) Interface temperature: 280° C.
# (§12) Ion source temperature: 200° C.
# (§13) Mode: multiple reaction monitoring (MRM)
# The rate of increase or decrease in Table A is the value of detection intensity relative to 1 that is the detection intensity in a case where the time from blood collection to centrifugation is set to 15 minutes.
# [2] = GC/MS of blood plasma sample: number of times of freezing and thawing (Table C); conditions: for Rate of increase or decrease: detection intensity relative to 1 at 2 times; for Increase or decrease: detection intensity
# Protocol: as §1, §2, §3, §4, §5, §6, §7, §8, §9, §10, §11, §12, §13
# The rate of increase or decrease in Table C is the value of detection intensity relative to 1 that is the detection intensity in a case where the number of times of freezing and thawing is set to 2 times.
# [3] = GC/MS of serum sample: time from blood collection to centrifugation (Table G); conditions: blood collection to centrifugation; for Rate of increase or decrease: detection intensity relative to 1 at 15 minutes; for Increase or decrease: detection intensity
# How it was run: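 Values express detection intensity as a ratio to the sample centrifuged 15 minutes after blood collection (taken as 1). Serum was derivatized by methoxymation and trimethylsilylation, then analysed by electron-ionization GC/MS using multiple reaction monitoring on a BPX5 column ramped from 60 to 330° C.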
# [4] = GC/MS of serum sample: time from centrifugation to isolation (Table H); set-up: key to Rate of increase or decrease / Rate of increase or decrease (first value, increase): detection intensity relative to 1 at 30 min centrifugation-to-isolation
# How it was run: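 Values are GC/MS (EI, MRM) detection intensities of methoxymated/trimethylsilylated serum, normalised to 1 for the 30-min sample. Serum was isolated 30 min, 1 h or 6 h after room-temperature centrifugation (3500 rpm, 5 min) of blood.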
# [5] = GC/MS of serum sample: number of times of freezing and thawing (Table I); set-up: key to Rate of increase or decrease / Rate of increase or decrease (first value, increase): detection intensity relative to 2 freeze-thaw cycles = 1
# How it was run: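 Detection intensities are ratios to the value after two freeze–thaw cycles, which is set as 1, compared against 4, 6 and 10 cycles. Analysis used methoxymation and trimethylsilylation derivatization, then GC/MS with EI ionization and multiple reaction monitoring on a BPX5 column. Serum came from blood held at room temperature and spun at 3500 rpm for 5 min.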
# [6] = LC/MS of blood plasma sample: number of times of freezing and thawing (Table F)
# Protocol: as §1, §2
# (§14) Analysis column: Discovery HS F5-3 (inner diameter of 2.1 mm, length of 150 mm, film thickness of 3 μm) (Sigma-Aldrich)
# (§15) Column temperature: 40° C.
# (§16) (A) 0.1% formic acid (dissolved in water)
# (§17) (B) 0.1% formic acid (dissolved in acetonitrile)
# (§18) Flow velocity: 0.25 mL/min
# (§19) Ionization method: electrospray
# (§20) Temperature: • Desolvation Line (DL) temperature: 250° C. • Heat block temperature: 400° C. • Interface temperature: 300° C.
# (§21) Gas flow rate: • Nebulizer gas flow rate: 3.0 L/min • Drying gas flow rate: 10.0 L/min • Heating gas flow rate: 10.0 L/min
# as §13
# The rate of increase or decrease in Table F is the value of detection intensity relative to 1 that is the detection intensity in a case where the number of times of freezing and thawing is set to 2 times.
# [7] = LC/MS of serum sample: number of times of freezing and thawing (Table M); set-up: key to Rate of increase or decrease: detection intensity relative to 1 at 2 freeze-thaw cycles
# Protocol: After standing, the blood sample was subjected to centrifugation under a condition of room temperature, 3500 rpm, and 5 minutes. […] After centrifugation, the blood-collecting vessel was left to stand at room temperature, and the serum was isolated during this time. Here, in order to investigate how the detection intensity of molecules contained in the sample was affected in cases where the time during which the blood-collecting vessel was left at room temperature was set to 1 hour and 6 hours as compared to that in a case where the time was set to 30 minutes, preparations were performed under the respective conditions of 30 minutes, 1 hour, and 6 hours. The obtained serum sample was frozen and stored. Here, in order to investigate how the detection intensity of molecules contained in the sample was affected in cases where freezing and thawing was performed 4 times, 6 times, and 10 times after freezing as compared to that in a case where freezing and thawing was performed 2 times after freezing, freezing and thawing was performed under the respective conditions of 2, 4, 6, and 10 times.
# as §2, §14, §15, §16, §17, §18, §19, §20, §21, §13
# The rate of increase or decrease in Table M is the value of detection intensity relative to 1 that is the detection intensity in a case where the number of times of freezing and thawing is set to 2 times.
# [8] = freezing and thawing 4 times vs 2 times
# [9] = freezing and thawing 6 times vs 2 times
SMILES,Rate of increase or decrease ([1]; after 4 hours),Increase or decrease ([1]; after 4 hours vs 15 minutes),Rate of increase or decrease ([2]; freezing and thawing 4 times),"Increase or decrease [2, 8]",Rate of increase or decrease ([3]; after 4 hours),Increase or decrease ([3]; after 4 hours vs 15 minutes),Rate of increase or decrease ([2]; freezing and thawing 6 times),"Increase or decrease [2, 9]",also measured
CCCCCCCCCCCCCCCCCC(=O)OCC(O)CO (stereo not shown) [Monostearin],,,,,1.98,Increase,0.67,Decrease,"Rate of increase or decrease ([1]; after 12 hours): 1.35; Increase or decrease ([1]; after 12 hours vs 15 minutes): Increase; Rate of increase or decrease ([4]; detection intensity relative to 1 at 30 minutes, after 6 hours): 2.08; Increase or decrease ([4]; detection intensity, after 6 hours vs 30 minutes): Increase; Rate of increase or decrease ([5]; 10 times of freezing and thawing, detection intensity relative to 1 at 2 times): 0.60; Number of times when compound is affected ([5]; serum sample, GC/MS, detection intensity changed by 30% or more vs 2 times of freezing and thawing): 10 times; Increase or decrease ([5]; serum sample, GC/MS, detection intensity vs 2 times of freezing and thawing): Decrease"
N[C@@H](CCS)C(=O)O [Homocysteine],,,,,,,,,"Rate of increase or decrease ([6]; detection intensity relative to 1 at 2 times, freezing and thawing 10 times): 1.37; Increase or decrease ([6]; detection intensity, freezing and thawing 10 times vs 2 times): Increase; Rate of increase or decrease ([7]; 6 times of freezing and thawing, detection intensity relative to 1 at 2 times): 1.30; Number of times when compound is affected ([7]; serum sample, LC/MS, detection intensity changed by 30% or more vs 2 times of freezing and thawing): 6 times; Increase or decrease ([7]; serum sample, LC/MS, detection intensity vs 2 times of freezing and thawing): Decrease"
O=C(O)[C@H](O)[C@H](O)[C@H](O)CO [Ribonic acid],0.17,Decrease,1.62,Increase,,,,,Rate of increase or decrease ([3]; after 12 hours): 1.46; Increase or decrease ([3]; after 12 hours vs 15 minutes): Increase

# Second part, led by results:
Rate of increase or decrease ([1]; after 4 hours),Increase or decrease ([1]; after 4 hours vs 15 minutes),Rate of increase or decrease ([2]; freezing and thawing 4 times),"Increase or decrease [2, 8]",Rate of increase or decrease ([3]; after 4 hours),Increase or decrease ([3]; after 4 hours vs 15 minutes),Rate of increase or decrease ([2]; freezing and thawing 6 times),"Increase or decrease [2, 9]",SMILES,also measured
1.77,Increase,1.41,Increase,0.62,Decrease,,,O=C1O[C@H]([C@@H](O)CO)C(O)=C1O [Ascorbic acid],
,Different from individual,,,1.47,Increase,0.68,Decrease,O=C[C@H](O)[C@@H](O)[C@H](O)CO [Xylose],"Rate of increase or decrease (second value, decrease) ([1]; different from individual to individual, individuals with decrease, relative to 1 at 15 minutes, collection to centrifugation, after 4 hours): 0.69; Rate of increase or decrease (first value, increase) ([1]; different from individual to individual, individuals with increase, relative to 1 at 15 minutes, collection to centrifugation, after 4 hours): 1.68; Rate of increase or decrease ([3]; after 8 hours): 0.68; Increase or decrease ([3]; after 8 hours vs 15 minutes): Decrease"
